This note sets out measurements from PMC7529758, “Over-activation of a nonessential bacterial protease DegP as an antibiotic strategy” (Communications Biology, 2020).

The labels stand for the following.
B2: DegP^S210A (enzyme, E. coli, UniProt P0C0V0 27-474, looked up)
chain: AETSSATTAQQMPSLAPMLEKVMPSVVSINVEGSTTVNTPRMPRNFQQFFGDDSPFCQEGSPFQSSPFCQGGQGGNGGGQQQKFMALGSGVIIDADKGYVVTNNHVVDNATVIKVQLSDGRKFDAKMVGKDPRSDIALIQIQNPKNLTAIKMADSDALRVGDYTVAIGNPFGLGETVTSGIVSALGRSGLNAENYENFIQTDAAINRGNAGGALVNLNGELIGINTAILAPDGGNIGIGFAIPSNMVKNLTSQMVEYGQVKRGELGIMGTELNSELAKAMKVDAQRGAFVSQVLPNSSAAKAGIKAGDVITSLNGKPISSFAALRAQVGTMPVGSKLTLGLLRDGKQVNVNLELQQSSQNQVDSSSIFNGIEGAEMSNKGKDQGVVVNNVKTGTPAAQIGLKKGDVIIGANQQAVKNIAELRKVLDSKPSVLALNIQRGDSTIYLLMQ
notes: periplasmic protease DegP (HtrA family) of E. coli, active-site mutant S210A; In the crystals it resembles the dodecameric cage of 3OTP (two trimers in the asymmetric unit); also called DegP active-site mutant

In series [1] the target is T1, DegP^S210A (Escherichia coli, UniProt P0C0V0, S236A).
T1 construct: pET22b-degP(full length; S210A)_6His; 6His (C); made in house
Kind of series: Isothermal titration calorimetry. The settings on record: ITC; for binding stoichiometry N: 298 K, single binding site model, DMB_CYYKI 0–2 molar ratio; for Kd: Kd (M). The format is binding. The method, then:
ITC experiments were performed using Affinity ITC instruments (TA Instruments, New Castle, DE, USA) at 298 K. DegP^S210A mutant (18.10 μM for 0–2 molar ratio and 109.33 μM for 0–0.4 molar ratio), which were prepared in a buffer containing 5 mM phosphate (pH 8.0) were degassed at 295 K prior to measurements. Using a micro-syringe, 2.5 μL of DMB_CYYKI (300 μM) was added at intervals of 200 s to the DegP solution in the cell with gentle stirring. As for other ligands, 2.5 μL of MMB_CYYKI (453 μM), TMB_CYYKI (218.46 μM) or 18–58 substrate peptide (80 μM) was added at intervals of 200 s to the DegP solution (27.33 μM, 37.45 μM, and 20 μM, respectively). Data were fitted to the single binding site model. In experiments with 0–2 and 0–2.6 molar ratio of DMB_CYYKI and MMB_CYYKI, respectively, the data with 0–0.3 molar ratio were excluded for the fitting.

The target of series [2] is T2, DegP^S210A (Escherichia coli, UniProt P0C0V0, C83S/C95S/N322C/S236A).
T2 construct: pET22b-degP(full length; C57S/C69S/N296C/S210A)_6His; 6His (C); made in house; host or cells: E. coli (inferred from the pET plasmid)
T2 sequence (P0C0V0 27-474 C83S/C95S/S236A/N322C): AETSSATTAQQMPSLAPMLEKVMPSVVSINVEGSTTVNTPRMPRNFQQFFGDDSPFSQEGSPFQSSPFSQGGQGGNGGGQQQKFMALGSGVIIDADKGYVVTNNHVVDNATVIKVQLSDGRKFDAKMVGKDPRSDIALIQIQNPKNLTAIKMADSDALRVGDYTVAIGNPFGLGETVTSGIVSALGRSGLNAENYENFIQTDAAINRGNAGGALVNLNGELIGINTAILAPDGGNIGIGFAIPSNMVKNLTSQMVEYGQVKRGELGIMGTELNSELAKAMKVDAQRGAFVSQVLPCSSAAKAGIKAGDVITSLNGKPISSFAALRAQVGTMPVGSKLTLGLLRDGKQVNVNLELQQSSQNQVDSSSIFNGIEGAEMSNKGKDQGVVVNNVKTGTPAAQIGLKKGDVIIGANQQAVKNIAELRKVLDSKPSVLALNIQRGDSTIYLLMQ
Kind of series: FRET assay of DegP cage assembly. The format is biochemical. The method, then:
Fluorescence resonance energy transfer (FRET) assay was performed as previously described[14],[22]. Equimolar amounts of fluorescence donor- and acceptor-labeled DegP^S210A (total 0.1, 1 or 3 μM) was mixed in a buffer containing 50 mM sodium phosphate (pH 8) and 100 mM NaCl. Two-fold serial dilutions of activators were added to the DegP mixtures. Alexa Fluor 555 C2-maleinide and 647 C2-maleinide (life technologies) were used as fluorescence dyes. Cage assembly of DegP was monitored by increased FRET ratio using the micro-plate reader (excitation 520 nm, emission 570 or 670 nm, Infinite M200pro, Tecan). Assays were performed in triplicates.

Another series relates to E. coli imp4213. Nature of the series: microbe, parasite or virus in culture. It is filed as cell-based, Escherichia coli. The method, then: The susceptibility of E. coli to activators was analyzed by determining the MICs. Two-fold serial dilutions of activators in LB broth were added to bacteria (OD600 = 0.1) in 96-well plates. Plates were incubated with shaking at 30 or 42 °C. After 12 h of incubation, the MIC was defined as the lowest concentration of the activator to inhibit the growth of bacteria by using a micro-plate reader (Absorbance 600 nm, Infinite M200pro, Tecan). The assay was performed in triplicates.

In a further series the test system is E.coli imp4213 strain. The format is cell-based, Escherichia coli. The settings on record: 20 µg/ml alone; 12 h. The protocol: Time-kill experiment was performed by counting the viable bacteria at each time point. The E.coli imp4213 strain was cultured with streptomycin overnight and diluted 1:100 in fresh LB broth. When the OD600 value became 0.01, the activator was added at 2x MIC. The sample was incubated with shaking (180 rpm) at 30 °C or 42 °C, and aliquots were taken after 0, 1, 2, 4, 6, 8, 10, or 12 h. These aliquots were serially diluted (ten-fold) and plated on LB agar plates for colony counts. Experiments were performed in triplicates. The kill curves were plotted with the CFU/mL against time.
Experiments with cells in the stationary phase, however, were performed without dilution of the overnight culture.

In the next series the target is T3, DegP^WT (E. coli) (UniProt P0C0V0).
T3 sequence: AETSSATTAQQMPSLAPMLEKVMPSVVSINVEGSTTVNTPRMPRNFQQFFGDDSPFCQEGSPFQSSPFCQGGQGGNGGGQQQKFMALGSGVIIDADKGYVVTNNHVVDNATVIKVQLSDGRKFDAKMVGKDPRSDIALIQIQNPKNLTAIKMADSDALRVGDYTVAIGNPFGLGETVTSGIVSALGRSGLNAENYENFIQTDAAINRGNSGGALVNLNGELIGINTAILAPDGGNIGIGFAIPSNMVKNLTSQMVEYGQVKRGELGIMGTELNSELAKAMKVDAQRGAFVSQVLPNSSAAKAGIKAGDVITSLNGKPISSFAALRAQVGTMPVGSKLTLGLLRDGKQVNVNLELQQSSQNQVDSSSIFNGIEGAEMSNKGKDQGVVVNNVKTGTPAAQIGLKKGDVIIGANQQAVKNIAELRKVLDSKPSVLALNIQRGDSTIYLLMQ

Series [3] deals with the molecule itself. Nature of the series: crystal structure; DegP^S210A (198 µM) incubated with TMB_CYYKI (297 µM) in 5 mM phosphate pH 8.0 for 1 h at 295 K; hanging drop, PEG3350 10%, tacsimate 0.1 M pH 3.4; molecular replacement with 3OTP.
In series [4] the target is B2. Nature of the series: ITC; 298 K, 5 mM phosphate pH 8.0; compound or peptide injected into DegP^S210A in the cell; single binding site model; for DMB_CYYKI (0–2 molar ratio) and MMB_CYYKI (0–2.6) the data at 0–0.3 molar ratio were excluded from the fit. The following applies: both partners purified. A general note: ITC needs no label: the signal is the heat of the interaction.

The target of series [5] is T4, DegP^S210A (E. coli, UniProt P0C0V0 27-474, S210A).
T4 sequence: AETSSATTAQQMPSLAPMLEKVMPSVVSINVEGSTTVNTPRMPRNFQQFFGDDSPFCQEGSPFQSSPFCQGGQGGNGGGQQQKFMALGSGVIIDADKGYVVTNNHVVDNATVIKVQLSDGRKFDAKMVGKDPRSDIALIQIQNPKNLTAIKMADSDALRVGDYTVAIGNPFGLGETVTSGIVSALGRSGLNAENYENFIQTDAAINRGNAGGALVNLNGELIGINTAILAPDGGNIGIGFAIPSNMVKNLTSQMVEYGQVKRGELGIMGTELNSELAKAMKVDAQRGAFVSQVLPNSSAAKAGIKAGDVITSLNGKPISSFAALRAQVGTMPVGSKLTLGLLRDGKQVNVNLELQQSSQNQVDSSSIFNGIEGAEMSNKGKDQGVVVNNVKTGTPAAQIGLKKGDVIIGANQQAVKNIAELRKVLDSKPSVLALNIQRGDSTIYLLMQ
Kind of series: ITC.

The next series deals with DegP^S210A (E. coli) (UniProt P0C0V0). Kind of series: ITC; 298 K, 5 mM phosphate pH 8.0; compound or peptide injected into DegP^S210A in the cell; single binding site model; for DMB_CYYKI (0–2 molar ratio) and MMB_CYYKI (0–2.6) the data at 0–0.3 molar ratio were excluded from the fit.
Where [6] appears, read: model Independent, DMB_CYYKI 0-2 molar ratio.

*1 amine or outer side, *2 acyl side, *3 side chain or, on linkers, in order; H or OH if unused. Where a SMILES comes first, the peptide text is derived from it. Bridges are numbered along the chain shown (N, C = ends). Roman numbers before positions name the chains, in order. Where no end group is shown, it is not given here. The star is where a group is joined. TBMB = c1c(C[*:1])cc(C[*:3])cc1C[*:2]; mXylylene = c1cc(C[*:1])cc(C[*:2])c1; Bn = c1ccc(C*)cc1

As to “DNYRGYSLGNWVSAAKFESNFNTQATNRNTDGSTDYGILQI [18–58, reference compound]”, the results for the “binding stoichiometry N” value at DegP^S210A [1] and on DegP^S210A [1] (listed as 18-58) were 0.47 and 0.473, respectively. Moreover, the “ΔH” value at DegP^S210A [1] (setting [6]) is -4.4 kcal/mol.
A word on the EC50: it is the concentration needed to bring the measured effect to its halfway point. A word on the Kd: it is the constant that tells how readily two partners part at equilibrium. Take `CC[C@H](C)[C@H](NC(=O)[C@H](CCCCN)NC(=O)[C@H](Cc1ccc(O)cc1)NC(=O)[C@H](Cc1ccc(O)cc1)NC(=O)[C@@H](N)CSCc1ccccc1)C(=O)O` [MMB_CYYKI] (H-C(Bn)YYKI-OH): the EC50 at DegP^S210A [2] worked out at 6800 nM. Also, the Kd on DegP^S210A [1] (setting [6]) turned out to be 6.32e-07 M.
For the molecule `O=C(N[C@H](CO)[C@H](O)c1ccc([N+](=O)[O-])cc1)C(Cl)Cl` [chloramphenicol, reference compound], the MIC in the series with E. coli imp4213 (Escherichia coli, IMP4213) is 2 µg/mL. For the same molecule, in the series with E.coli imp4213 strain, the “number of viable cells” value is given as “roughly at the same level”.
`CC[C@H](C)[C@H](NC(=O)[C@H](CCCCN)NC(=O)[C@H](Cc1ccc(O)cc1)NC(=O)[C@H](Cc1ccc(O)cc1)NC(=O)[C@@H](N)CSCc1cc(CSC[C@H](N)C(=O)N[C@@H](Cc2ccc(O)cc2)C(=O)N[C@@H](Cc2ccc(O)cc2)C(=O)N[C@@H](CCCCN)C(=O)N[C@H](C(=O)O)[C@@H](C)CC)cc(CSC[C@H](N)C(=O)N[C@@H](Cc2ccc(O)cc2)C(=O)N[C@@H](Cc2ccc(O)cc2)C(=O)N[C@@H](CCCCN)C(=O)N[C@H](C(=O)O)[C@@H](C)CC)c1)C(=O)O` [TMB_CYYKI] (I: H-CYYKI-OH / II: H-CYYKI-OH / III: H-CYYKI-OH; linker I:1-II:1-III:1 via TBMB) registered a half-maximal effective concentration (EC50) at DegP^S210A [2] of 1700 nM. The molecule further gave an MIC against E. coli imp4213 (imp4213, Fig. 3a and Supplementary Fig. 6b (30 °C and 42 °C), 12 h, LB) of 80 µM. In addition, on DegP^S210A [1] (setting [6]), the Kd is 2.35e-07 M.
In turn, `CC[C@H](C)[C@H](NC(=O)[C@H](CCCCN)NC(=O)[C@H](Cc1ccc(O)cc1)NC(=O)[C@H](Cc1ccc(O)cc1)NC(=O)[C@@H](N)CSCc1cccc(CSC[C@H](N)C(=O)N[C@@H](Cc2ccc(O)cc2)C(=O)N[C@@H](Cc2ccc(O)cc2)C(=O)N[C@@H](CCCCN)C(=O)N[C@H](C(=O)O)[C@@H](C)CC)c1)C(=O)O` [DMB_CYYKI] (I: H-CYYKI-OH / II: H-CYYKI-OH; linker I:1-II:1 via mXylylene) showed an EC50 at DegP^S210A [2] of 1100 nM. For the same molecule, the equilibrium dissociation constant (Kd) was determined as 4.62e-07 M at DegP^S210A [1] (model Independent, 0-0.4 molar ratio) and 2.39e-07 M on DegP^S210A [1] (setting [6]).
`CO[C@H]1/C=C/O[C@@]2(C)Oc3c(C)c(O)c4c(O)c(c(/C=N/N5CCN(C)CC5)c(O)c4c3C2=O)NC(=O)/C(C)=C\C=C\[C@H](C)[C@H](O)[C@@H](C)[C@@H](O)[C@@H](C)[C@H](OC(C)=O)[C@@H]1C` [rifampicin, reference compound] showed an MIC in the series on E. coli imp4213 (Escherichia coli, IMP4213) of 0.008 µg/mL.
In turn, `CN(C)[C@@H]1C(O)=C(C(N)=O)C(=O)[C@@]2(O)C(O)=C3C(=O)c4c(O)cccc4[C@@](C)(O)[C@H]3C[C@@H]12` [tetracycline, reference compound] displayed an MIC with E. coli imp4213 (Escherichia coli, IMP4213) of 1 µg/mL.

B1: TMB_CKYRKL (peptide)
peptide: CKYRKL
modifications: also: three arms joined via TMB (trimer), linker at 1 via TMB, other end not in the chain
In the series with DegP^WT (E. coli), B1 had a concentration of compound at maximal activation of reporter peptide (100 µM) cleavage by DegP; activation followed by inhibition at higher concentrations of 100 µM.
As to B2, in series [3], the binding result is given as “binds”.

B3: MMB_CYYKI (peptide)
peptide: CYYKI
modifications: not fully specified (residue 1); printed as MMB_CYYKI
notes: also called compound with one CYYKI arm; one-arm compound; source: synthetic peptide (SPPS), reacted with benzyl bromide
As a reminder, the stoichiometry N is the number of molecules, sites or subunits per partner or assembly. As to B3, the “stoichiometry N” value with DegP^S210A [4] was determined as 1.11. In the series with DegP^S210A [5], this molecule displayed a Kd of 630 nM.
Molecule GTGDNYRGYSLGNWVSAAKFESNFNTQATNRNTDGSTDYGILQI [18–58 substrate peptide] registered a dissociation constant (Kd) with DegP^S210A [5] of 100 nM. Besides, the stoichiometry N with DegP^S210A (E. coli) was found to be 0.47.
